# Data from patent US20100068747A1, “Generic Assay for Monitoring Endocytosis” (Evotec Technologies GmbH, priority 2005, published 2010).
# Target: T1, endothelin A receptor (ETAR) (Homo sapiens, UniProt P25101)
# T1 construct: expressed in transfected cells; host or cells: CHO-K1 cell line clone #19, prepared in-house
# T1 sequence (P25101 21-427): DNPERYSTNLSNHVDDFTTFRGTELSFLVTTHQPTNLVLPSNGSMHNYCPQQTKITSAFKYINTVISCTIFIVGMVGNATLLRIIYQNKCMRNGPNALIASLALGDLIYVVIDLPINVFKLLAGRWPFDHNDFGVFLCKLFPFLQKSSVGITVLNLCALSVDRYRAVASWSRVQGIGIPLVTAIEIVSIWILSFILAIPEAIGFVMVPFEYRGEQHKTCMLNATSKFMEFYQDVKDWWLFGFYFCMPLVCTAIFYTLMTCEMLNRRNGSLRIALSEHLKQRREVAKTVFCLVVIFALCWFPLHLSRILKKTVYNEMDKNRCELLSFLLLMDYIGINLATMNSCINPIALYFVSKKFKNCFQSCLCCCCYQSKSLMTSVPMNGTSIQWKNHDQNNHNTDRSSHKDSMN
# Assay: Lectin labeling of live cells with receptor targeted stimulation, CHO/ETAR
# Type: cell-based, Chinese hamster
# Conditions: endothelin 1 stimulation
# Method: With regard to lectin labeling of live cells with receptor target stimulation, lyophilized PAR-2 peptide was resuspended in 20 mM HEPES with 0.1% BSA at 4 mM. […] The live cell labeling protocol was applied as described above. Additionally, endothelin and PAR-2 agonist peptide were added to the assay medium employed after the lectin labeling step at concentrations of 40 nM and 100 μM, respectively. For controls, same amount of resuspension liquid without agonist was supplemented. Instantly, fluorescence signals were monitored.
substance,measurement,value
succinylated Triticum vulgaris (wheat germ) agglutin [sWGA],"early spot formation, time after stimulation",20 to 30 min
